Patent US12674135B2, “Three-dimensional culture of immortalized skin cells on the superficial layer of which a stratum corneum is formed, method for producing said three-dimensional culture, and method for evaluating test substance using said three-dimensional culture” (National Institute of Advanced Industrial Science and …, priority 2020, dated 2026)

Tests used:
[1] = tested on: IL-8 promoter (red light-emitting luciferase) in three-dimensional culture of HaCaT
Description: (§1) The thus obtained HaCaT was used to obtain a three-dimensional culture by the same method as in Example 1. The three-dimensional culture was a three-dimensional culture in which a Cellbed was used as a plate-like substrate as in Example 1, to which a HaCaT culture layered product was adhered, and the superficial layer of the three-dimensional culture was the stratum corneum.
(§2) A cell culture insert (Falcon Culture Insert #353095) comprising a clear, colorless, PET membrane with a 0.4 μm pore size bottom for 24 wells was inserted into the wells of a 24-well plate for cell culture with black walls and a colorless bottom, the three-dimensional culture was placed in the bottom of the culture insert with the cells on top, and 0.8 mL of KGM-gold containing 0.2 mM luciferin potassium salt was placed in the well outside the culture insert. For sensitization evaluation, a test substance was loaded from the top of the three-dimensional culture inside the insert. […] As a solvent control, 30 μL of KGM medium was added from the top of the three-dimensional culture. Plastic paraffin film was sprinkled around this well plate and the luminescence was measured for 0 to 72 hours with a real-time luminescence monitoring system for cultured cells, Kronos HT (manufactured by ATTO Corporation). Measurements were taken every minute for 10 seconds for each color and continued for 0 to 72 hours. […]

[2] = tested on: IL-8 promoter (red light-emitting luciferase) in three-dimensional culture of HaCaT; assay: Skin sensitization evaluation: test substance loaded from the top of the three-dimensional HaCaT culture, multicolor luciferase luminescence (IL-8 promoter red / UBC promoter green); details: range of from 200 µM to 2 mM in KGM medium, 30 μL loaded only from the top, up to 72 hours, FIG. 10
Description: as §1, §2

[3] = tested on: IL-8 promoter (red light-emitting luciferase) in three-dimensional culture of HaCaT; details: 20 μM, 100 μM and 200 μM, loaded from bottom and top surfaces, 0 to 72 hours, FIG. 15
Description: as §1
A cell culture insert (Falcon Culture Insert #353095) comprising a clear, colorless, PET membrane with a 0.4 μm pore size bottom for 24 wells was inserted into the wells of a 24-well plate for cell culture with black walls and a colorless bottom, the three-dimensional culture obtained in Example 3 was placed in the bottom of the culture insert with the cells on top. […] 0.8 mL of this medium was placed on the outside of the culture insert, and then 30 μL was loaded from the top of the three-dimensional culture. […]
Plastic paraffin film was sprinkled around this well plate and the luminescence was measured for 0 to 72 hours with a real-time luminescence monitoring system for cultured cells, Kronos HT (manufactured by ATTO Corporation). The bioluminescence intensity of each luciferase was measured on these three-dimensional cultures as in Example 5.

Row | SMILES | emission intensity, concentration dependence [1] | relative bioluminescence intensity of red light-emitting luciferase (IL-8 promoter) to green light-emitting luciferase (ubiquitin C promoter) [2] | bioluminescence intensity ratio of red light-emitting luciferase (IL-8 promoter) to green light-emitting luciferase (ubiquitin C promoter) [3]
1 | CCCCN(CCCC)c1ccccc1 [DA, dibutylaniline] | concentration dependence was observed | – | –
2 | Oc1ccc(O)cc1 [HQ, hydroquinone] | – | concentration-dependent increase | increased in a concentration-dependent manner
